Results: PubChem BioAssay (NCI)
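Compound exposure: 48 hours, 5 concentrations, 96-well plates. GI50 marks 50% less growth. The concentration for full growth arrest is given as TGI.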

What was measured:
Experiment in all cases: NCI-60 cell line screen, 48 h
ACHN renal = tested on: ACHN renal
CAKI-1 renal = tested on: CAKI-1 renal
CCRF-CEM leukemia = tested on: CCRF-CEM leukemia
HCT-116 colon = tested on: HCT-116 colon
LOX IMVI melanoma = tested on: LOX IMVI melanoma
M14 melanoma = tested on: M14 melanoma
NCI-H226 lung = tested on: NCI-H226 lung
NCI-H23 lung = tested on: NCI-H23 lung
SK-MEL-28 melanoma = tested on: SK-MEL-28 melanoma
U251 CNS = tested on: U251 CNS

Row | Structure (SMILES) | GI50 (ACHN renal) | TGI (ACHN renal) | GI50 (CAKI-1 renal) | TGI (CAKI-1 renal) | GI50 (CCRF-CEM leukemia) | TGI (CCRF-CEM leukemia) | GI50 (HCT-116 colon) | TGI (HCT-116 colon) | GI50 (LOX IMVI melanoma) | TGI (LOX IMVI melanoma) | GI50 (M14 melanoma) | TGI (M14 melanoma) | GI50 (NCI-H226 lung) | TGI (NCI-H226 lung) | GI50 (NCI-H23 lung) | TGI (NCI-H23 lung) | GI50 (SK-MEL-28 melanoma) | TGI (SK-MEL-28 melanoma) | GI50 (U251 CNS) | TGI (U251 CNS)
1 | CC(=O)Nc1ccc2c(c1)[nH]c(=O)c1cc(NC(C)=O)ccc12 | > 100 µM | > 100 µM | > 100 µM | > 100 µM | 53.5 µM | > 100 µM | > 100 µM | > 100 µM | > 100 µM | > 100 µM | > 100 µM | > 100 µM | > 100 µM | > 100 µM | > 100 µM | > 100 µM | > 100 µM | > 100 µM | 52 µM | > 100 µM
2 | CCN(CC(O)COc1ccc2c(c1)[n+]([O-])nc(N)[n+]2[O-])C(C)=O (stereo not drawn) | – | > 100 µM | – | > 100 µM | – | > 100 µM | – | > 100 µM | – | > 100 µM | – | > 100 µM | – | > 100 µM | – | > 100 µM | – | > 100 µM | – | > 100 µM
3 | O=C(Nc1n[nH]c2cc(-c3ccc(F)cc3)ccc12)C1CC1 | 16.8 µM | > 25 µM | 9.75 µM | > 25 µM | 8.77 µM | > 25 µM | 8.89 µM | > 25 µM | 10.7 µM | > 25 µM | 8.6 µM | > 25 µM | 9.29 µM | > 25 µM | 7.18 µM | > 25 µM | 12.3 µM | > 25 µM | 10.2 µM | > 25 µM
4 | CCN(Cc1c(F)cccc1C(F)(F)F)c1ccc(CO)c(Cl)c1 | 15 µM | 28.6 µM | 10.2 µM | 24.2 µM | 15.7 µM | 36.1 µM | < 0.0371 µM | 11.8 µM | 18.1 µM | 33.3 µM | 17.4 µM | 33.4 µM | 0.035 µM | 0.154 µM | 14.4 µM | 31.7 µM | 13.9 µM | 27.6 µM | 0.623 µM | 17.5 µM
5 | COc1ccc(N2CCN(c3nc(-c4ccccn4)nc4sc5c(c34)CCCCCC5)CC2)cc1 | 5.09 µM | > 100 µM | 5.4 µM | > 100 µM | 4.32 µM | > 100 µM | 3.22 µM | > 100 µM | 6.24 µM | > 100 µM | 5.4 µM | > 100 µM | 6.49 µM | > 100 µM | 16.9 µM | > 100 µM | > 100 µM | > 100 µM | 4.26 µM | > 100 µM
6 | O=C1NC(=O)/C(=C/c2ccc3nccc(-c4ccncc4)c3c2)S1 | 0.469 µM | 8.39 µM | 0.289 µM | 2.04 µM | 0.495 µM | > 10 µM | 0.466 µM | > 5.61 µM | 0.247 µM | 2.73 µM | 0.365 µM | 2.79 µM | 0.239 µM | 2.76 µM | 0.633 µM | > 6 µM | 0.237 µM | 2.29 µM | 0.261 µM | 2.23 µM
7 | O=[N+]([O-])c1ccc(NC(c2ccccc2)c2ccc3cccnc3c2O)cc1 (stereo not drawn) | 0.351 µM | > 89.9 µM | 0.312 µM | – | 0.246 µM | 7.97 µM | 0.31 µM | > 55.9 µM | 0.293 µM | – | 0.308 µM | > 100 µM | 0.505 µM | 9.19 µM | 0.414 µM | > 100 µM | 0.697 µM | > 100 µM | 0.418 µM | > 100 µM
8 | O=S(=O)(O)c1ccc([Se][Se]c2ccc(S(=O)(=O)O)cc2)cc1 | – | > 100 µM | – | > 100 µM | – | > 100 µM | – | > 100 µM | – | > 100 µM | – | > 100 µM | – | > 100 µM | – | > 100 µM | – | > 100 µM | – | > 100 µM
9 | COc1cc2cc(C(=O)Nc3ccccc3)c(N)nc2cc1OC | 39.4 µM | > 100 µM | 34.5 µM | > 100 µM | 35.9 µM | > 100 µM | 40.4 µM | > 100 µM | 42.3 µM | > 100 µM | 33.1 µM | > 100 µM | 54.4 µM | > 100 µM | 73.9 µM | > 100 µM | 75.4 µM | > 100 µM | 43.1 µM | > 100 µM
